Data published in patent US9556187B2, “Substituted pyrrolo[3′,2′:5,6]pyrido[4,3-d]pyrimidines and JAK inhibitors comprising the same” (priority 2011, dated 2017).

What was measured:
Type in all cases: biochemical
JAK1 [1] = target: T1, JAK1 (Homo sapiens (Human), UniProt P23458); experiment: Enzyme assay (LANCE Ultra ULight-JAK1 Peptide), JAK1; settings: ATP 100 μM
JAK2 [2] = target: T2, JAK2 (Homo sapiens (Human), UniProt O60674); experiment: Enzyme assay (LANCE Ultra ULight-JAK1 Peptide), JAK2; settings: ATP 100 μM
JAK3 = JAK3 (Homo sapiens (Human), UniProt P52333); experiment: Enzyme assay, JAK3 (Assay Example^b 1)
Sequence of JAK3 (P52333 whole entry): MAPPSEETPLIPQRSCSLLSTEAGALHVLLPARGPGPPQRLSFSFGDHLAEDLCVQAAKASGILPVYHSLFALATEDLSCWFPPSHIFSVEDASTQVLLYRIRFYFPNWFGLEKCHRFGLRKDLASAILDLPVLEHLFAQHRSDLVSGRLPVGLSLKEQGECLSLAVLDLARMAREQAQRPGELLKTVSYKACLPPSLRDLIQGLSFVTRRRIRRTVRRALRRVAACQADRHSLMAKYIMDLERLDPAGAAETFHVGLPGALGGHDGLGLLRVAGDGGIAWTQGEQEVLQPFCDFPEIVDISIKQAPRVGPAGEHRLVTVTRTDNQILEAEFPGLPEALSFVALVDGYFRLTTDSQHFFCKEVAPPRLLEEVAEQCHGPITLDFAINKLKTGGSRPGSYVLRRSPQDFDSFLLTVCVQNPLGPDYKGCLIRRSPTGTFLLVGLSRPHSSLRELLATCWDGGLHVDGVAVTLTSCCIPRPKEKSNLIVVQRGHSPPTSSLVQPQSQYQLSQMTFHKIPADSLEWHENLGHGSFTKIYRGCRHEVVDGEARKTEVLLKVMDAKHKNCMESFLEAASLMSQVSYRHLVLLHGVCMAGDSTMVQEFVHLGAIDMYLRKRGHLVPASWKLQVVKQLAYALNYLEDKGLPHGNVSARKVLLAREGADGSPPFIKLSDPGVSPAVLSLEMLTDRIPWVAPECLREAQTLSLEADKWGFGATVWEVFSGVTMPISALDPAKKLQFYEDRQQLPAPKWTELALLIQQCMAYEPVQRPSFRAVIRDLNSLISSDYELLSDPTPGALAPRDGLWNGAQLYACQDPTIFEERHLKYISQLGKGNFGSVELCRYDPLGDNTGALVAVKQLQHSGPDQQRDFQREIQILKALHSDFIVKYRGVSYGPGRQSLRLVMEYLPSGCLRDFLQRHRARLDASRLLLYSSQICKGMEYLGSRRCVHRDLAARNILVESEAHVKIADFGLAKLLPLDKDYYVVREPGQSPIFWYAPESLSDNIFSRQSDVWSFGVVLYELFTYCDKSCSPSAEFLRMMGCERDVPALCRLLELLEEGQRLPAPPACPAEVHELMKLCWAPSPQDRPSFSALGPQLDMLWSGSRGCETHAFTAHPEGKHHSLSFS
Method: (§1) JAK1, JAK2, JAK3 and Tyk2 were purchased from Carna Biosciences, Inc. As the substrate, LANCE Ultra ULight-JAK1 Peptide (manufactured by PerkinElmer Co., Ltd. (PE)) was used. Dilute solutions of compounds and enzymes in assay buffer (50 mM HEPES pH7.5, 1 mM EGTA, 1 mM MgCl2, 2 mM DTT, 0.01% Tween20) were dispensed into wells of a 384-well black plate. After 5 minutes of preincubation, dilute solutions of the substrate and ATP (adenosine triphosphate) were added at a final concentration of 100 μM, and the plate was incubated at room temperature for 2 hours. After addition of a termination reagent containing EDTA (ehylenediamine tetraacetic acid) at a final concentration of 10 mM, LANCE Eu-W1024 Anti-phosphotyrosine (PT66) (manufactured by PE) was added, and after 1 hour of incubation, the fluorescences were measured with ARVO-HTS. From the plot of logarithm of a compound concentration and inhibitory activity, the IC50 was calculated.

JAK2 [3] = target: T2, JAK2; experiment: Enzyme assay, JAK2 (Assay Example^b 1); settings: ATP 100 μM
Method: as §1

Tyk2 [4] = target: T3, Tyk2 (Homo sapiens (Human), UniProt P29597); experiment: Enzyme assay, Tyk2 (Assay Example^b 1); settings: ATP 100 μM
T3 sequence (P29597 whole entry): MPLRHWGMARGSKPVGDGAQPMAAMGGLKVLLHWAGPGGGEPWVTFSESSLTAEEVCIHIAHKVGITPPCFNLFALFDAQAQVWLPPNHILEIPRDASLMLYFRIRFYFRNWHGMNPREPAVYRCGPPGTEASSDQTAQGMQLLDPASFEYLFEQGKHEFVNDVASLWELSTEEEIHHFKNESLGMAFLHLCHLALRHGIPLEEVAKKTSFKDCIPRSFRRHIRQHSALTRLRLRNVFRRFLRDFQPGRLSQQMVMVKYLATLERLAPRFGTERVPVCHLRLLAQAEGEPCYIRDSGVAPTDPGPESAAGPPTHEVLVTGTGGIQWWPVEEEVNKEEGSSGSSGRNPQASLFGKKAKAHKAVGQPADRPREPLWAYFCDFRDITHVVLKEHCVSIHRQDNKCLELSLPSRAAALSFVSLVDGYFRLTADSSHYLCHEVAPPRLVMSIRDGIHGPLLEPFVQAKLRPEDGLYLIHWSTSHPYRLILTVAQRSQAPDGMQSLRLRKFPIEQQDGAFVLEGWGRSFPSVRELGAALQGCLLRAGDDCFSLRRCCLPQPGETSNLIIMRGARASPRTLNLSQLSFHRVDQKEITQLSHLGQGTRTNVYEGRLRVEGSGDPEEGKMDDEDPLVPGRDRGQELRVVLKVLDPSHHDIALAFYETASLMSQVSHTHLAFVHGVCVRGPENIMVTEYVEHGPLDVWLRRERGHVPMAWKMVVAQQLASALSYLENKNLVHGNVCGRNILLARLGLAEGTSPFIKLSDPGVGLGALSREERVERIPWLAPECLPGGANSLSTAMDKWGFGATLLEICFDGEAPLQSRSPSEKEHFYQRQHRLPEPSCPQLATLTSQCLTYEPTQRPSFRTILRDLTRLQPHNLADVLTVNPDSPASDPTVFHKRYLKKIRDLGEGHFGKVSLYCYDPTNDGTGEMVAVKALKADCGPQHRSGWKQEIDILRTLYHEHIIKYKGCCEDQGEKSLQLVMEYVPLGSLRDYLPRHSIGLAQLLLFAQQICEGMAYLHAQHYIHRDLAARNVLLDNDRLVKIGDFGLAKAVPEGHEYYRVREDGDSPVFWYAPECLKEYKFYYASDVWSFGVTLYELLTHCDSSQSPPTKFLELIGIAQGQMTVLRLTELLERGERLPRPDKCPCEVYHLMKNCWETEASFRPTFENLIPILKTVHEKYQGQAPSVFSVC
Method: as §1

Tyk2 [5] = target: T3, Tyk2; experiment: Enzyme assay (LANCE Ultra ULight-JAK1 Peptide), Tyk2; settings: ATP 100 μM
JAK1 [6] = target: T1, JAK1; experiment: Enzyme assay, JAK1 (Assay Example^b 1); settings: ATP 100 μM
Method: as §1

T1 sequence (P23458 whole entry): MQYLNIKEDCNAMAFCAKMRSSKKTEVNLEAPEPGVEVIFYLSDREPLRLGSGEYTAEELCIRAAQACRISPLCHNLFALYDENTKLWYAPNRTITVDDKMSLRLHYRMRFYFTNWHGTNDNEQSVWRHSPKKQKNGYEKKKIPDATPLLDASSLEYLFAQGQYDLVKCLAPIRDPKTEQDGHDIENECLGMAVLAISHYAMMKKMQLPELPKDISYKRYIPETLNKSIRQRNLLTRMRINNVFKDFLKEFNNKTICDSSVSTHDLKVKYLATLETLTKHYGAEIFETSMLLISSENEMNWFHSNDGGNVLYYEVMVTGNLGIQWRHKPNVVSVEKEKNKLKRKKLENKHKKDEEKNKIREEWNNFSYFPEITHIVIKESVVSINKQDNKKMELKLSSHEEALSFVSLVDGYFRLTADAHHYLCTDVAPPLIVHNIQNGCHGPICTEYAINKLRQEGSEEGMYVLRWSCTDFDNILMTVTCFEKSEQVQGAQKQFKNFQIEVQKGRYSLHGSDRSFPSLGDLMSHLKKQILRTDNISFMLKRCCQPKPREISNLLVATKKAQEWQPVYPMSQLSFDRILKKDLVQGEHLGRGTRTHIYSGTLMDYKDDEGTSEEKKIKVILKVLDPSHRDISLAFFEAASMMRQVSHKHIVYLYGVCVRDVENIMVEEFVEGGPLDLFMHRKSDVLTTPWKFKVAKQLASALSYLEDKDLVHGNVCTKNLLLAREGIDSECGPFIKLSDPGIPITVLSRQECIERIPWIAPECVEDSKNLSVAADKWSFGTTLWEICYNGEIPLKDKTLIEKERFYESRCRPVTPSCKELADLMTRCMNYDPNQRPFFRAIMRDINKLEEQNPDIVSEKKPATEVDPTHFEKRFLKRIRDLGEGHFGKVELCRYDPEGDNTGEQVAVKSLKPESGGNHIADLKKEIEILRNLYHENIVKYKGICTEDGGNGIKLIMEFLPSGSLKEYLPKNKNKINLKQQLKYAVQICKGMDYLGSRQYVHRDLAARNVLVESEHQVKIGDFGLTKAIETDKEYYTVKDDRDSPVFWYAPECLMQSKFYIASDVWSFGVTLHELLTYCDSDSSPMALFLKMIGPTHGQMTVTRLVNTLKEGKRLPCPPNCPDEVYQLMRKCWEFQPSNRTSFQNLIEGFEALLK

CC(c1ccccc1)N1CCC(c2nnn3cnc4[nH]ccc4c23)CC1 (racemic) [Ex 245]
IC50 (JAK1 [1]; Synthetic Examples^a): 0.017 µM
IC50 (JAK2 [2]; Synthetic Examples^a): 0.062 µM

C[C@@H]1CCN(Cc2cccc(F)c2F)C[C@@H]1n1ccc(=O)c2cnc3[nH]ccc3c21 (racemic) [Synthetic Example^b 6a, rac-1-[(3R,4R)-1-(2,3-Difluorobenzyl)-4-methylpiperidin-3-yl]-1H-pyrrolo[2,3-h][1,6]naphthyridin-4(7H)-one]
IC50 (JAK3): 31 nM

C[C@@H]1CCN(C)C[C@@H]1n1ccc(=O)c2cnc3[nH]ccc3c21 (racemic) [Synthetic Example^b 6b, rac-1-[(3R,4R)-1,4-Dimethylpiperidin-3-yl]-1H-pyrrolo[2,3-h][1,6]naphthyridin-4(7H)-one]
IC50 (JAK2 [3]): 0.38 µM
IC50 (JAK3): 250 nM
IC50 (Tyk2 [4]): 3.9 µM

CC1(C)CCC(c2nnn3cnc4[nH]ccc4c23)CC1 [Ex 64]
IC50 (JAK1 [1]): 0.033 µM
IC50 (JAK2 [2]): 0.12 µM
IC50 (Tyk2 [5]): 0.31 µM
IC50 (JAK1 [6]): 0.012 µM

c1ccc2sc(CN3CCC(c4nnn5cnc6[nH]ccc6c45)CC3)nc2c1 [Ex 232]
IC50 (JAK1 [1]; Synthetic Examples^a): 0.0053 µM
IC50 (JAK2 [2]; Synthetic Examples^a): 0.033 µM
IC50 (Tyk2 [5]; Synthetic Examples^a): 0.74 µM

Brc1nc(CN2CCC(c3nnn4cnc5[nH]ccc5c34)CC2)sc1Br [Ex 233]
IC50 (JAK1 [1]; Synthetic Examples^a): 0.021 µM
IC50 (JAK2 [2]; Synthetic Examples^a): 0.071 µM
